Results reported in patent US20240130994A1, “IONIC LIQUID FORMULATIONS FOR TREATING DIABETES” (i2O Therapeutics, Inc., priority 2020, published 2024).

What was measured:
[1] = Physical form of choline-based ionic liquids at room temperature; format: physicochemical
Protocol: Several ionic liquids comprising choline as a cation and various anions were synthesized. […] For anions not miscible with the aqueous choline bicarbonate solution, a co-solvent, such as ethanol, was added until a homogenous mixture formed. The mixture was stirred at room temperature until CO2 evolution ceased. Solvent was removed by rotary evaporation at 60° C. for 20 minutes, and each product was dried in a vacuum oven for 48 hours at 60° C.

[2] = system: non-diabetic male Wistar rats; experiment: Blood glucose levels after intrajejunal injection in fasted non-diabetic rats; format: in vivo, rat; settings: 38 μL dose (acid content of 50 μL ionic liquid)
Protocol: About 250 μL of blood was collected at regular intervals in order to determine the blood glucose level. The obtained values, plotted as mean percent change±standard error in blood glucose levels with respect to initial reading (n=3) versus time, are shown in FIG. 7.
About 250 μL of blood was collected at regular intervals in order to determine the blood glucose level. The obtained values, plotted as mean percent change±standard error in blood glucose levels with respect to initial reading (n=3) versus time, are shown in FIG. 8.
The obtained values, plotted as mean percent change±standard error in blood glucose levels with respect to initial reading (n=4) versus time, are shown in FIG. 9.

[3] = cation:anion 1:1, room temperature
[4] = cation:anion 1:2, room temperature
[5] = cation:anion 2:1, room temperature

Row | Compound | Physical Form (Ratios Listed as Cation:Anion) [1, 3] | Physical Form (Ratios Listed as Cation:Anion) [1, 4] | other results
1 | CC(CCC(C(=O)O)C(C)CC(C)(C)C)CC(C)(C)C (stereo not shown) [2-(4,4-Dimethyl-2-pentanyl)-5,7,7-trimethyloctanoic Acid] | Solid at 1:1 | – | –
2 | CC(C)Cc1ccc(C(C)C(=O)O)cc1 (stereo not shown) [2-(4-Isobutylphenyl)propionic Acid] | Solid at 1:1 | – | –
3 | CCCCCCCCC(CCCCCC)C(=O)O (stereo not shown) [2-Hexyldecanoic Acid] | Liquid at 1:1 | – | –
4 | O=C(O)CNC(=O)c1ccccc1O [2-Hydroxyhippuric Acid] | Solid at 1:1 | – | –
5 | CC(C)CCCC(C)CC(=O)O (stereo not shown) [3,7-Dimethyloctanoic Acid] | Solid at 1:1, 1:2 | Solid at 1:1, 1:2 | –
6 | CCC(C)CCC(=O)O (stereo not shown) [4-Methylhexanoic Acid] | Liquid at 1:1, 1:2 | Liquid at 1:1, 1:2 | –
7 | CCCCC(C)CCC(=O)O (stereo not shown) [4-Methyloctanoic Acid] | Liquid | Solid | –
8 | CC(C)CCC(=O)O [4-Methylvaleric Acid] | – | Liquid at 1:2 | –
9 | O=C(O)C1CC2C=CC1C2 (stereo not shown) [5-Norbornene-2-carboxylic Acid] | Solid at 1:1 | – | –
10 | O=C(O)CCCC[C@@H]1CCSS1 [(R)-α-Lipoic Acid] | Solid at 2:1, 1:1, 1:2, | Solid at 2:1, 1:1, 1:2, | Physical Form (Ratios Listed as Cation:Anion) [1, 5]: Solid at 2:1, 1:1, 1:2,
11 | CC(C)C1=CC2=CC[C@@H]3[C@](C)(CCC[C@@]3(C)C(=O)O)[C@H]2CC1 [Abietic Acid] | Solid at 1:1 | – | –
12 | CC(=O)O [Acetic Acid] | Liquid at 2:1, 1:1, 1:2 | Liquid at 2:1, 1:1, 1:2 | Physical Form (Ratios Listed as Cation:Anion) [1, 5]: Liquid at 2:1, 1:1, 1:2
13 | CCCCC/C=C\C/C=C\C/C=C\C/C=C\CCCC(=O)O [Arachidonic Acid] | Solid at 1:1 | – | –
14 | O=C(O)/C=C/c1ccc(O)c(O)c1 [Caffeic Acid] | Solid at 1:1 | – | –
15 | O=C(O)CC(O)(CC(=O)O)C(=O)O [Citric Acid] | Solid | – | Physical Form (Ratios Listed as Cation:Anion) [1, 5]: Liquid; Physical Form (Ratios Listed as Cation:Anion) ([1]; cation:anion 3:1, room temperature): Liquid; Physical Form (Ratios Listed as Cation:Anion) ([1]; cation:anion 4:1, room temperature): Liquid
16 | C/C=C/C(=O)O [Crotonic Acid] | Liquid at 1:1, 1:2 | Liquid at 1:1, 1:2 | –
17 | O=C(O)[C@H](O)[C@@H](O)[C@@H](O)[C@H](O)CO [D-(+)-Galactonic Acid] | Solid at 1:1 | – | –
18 | CCCCCCCCCC(=O)O [Decanoic Acid] | Solid | Solid | Physical Form (Ratios Listed as Cation:Anion) ([1]; cation:anion 1:1, room temperature, listed as decanoic acid): solid; Physical Form (Ratios Listed as Cation:Anion) ([1]; cation:anion 1:2, room temperature, listed as decanoic acid): solid; Physical Form (Ratios Listed as Cation:Anion) [1, 5]: Liquid; Physical Form (Ratios Listed as Cation:Anion) ([1]; cation:anion 2:1, room temperature, listed as decanoic acid): liquid; appearance and physical form ([1]; room temperature, ratio as in label): waxy solid
19 | CC/C=C\C/C=C\C/C=C\C/C=C\C/C=C\CCCC(=O)O [Eicosapentanoic Acid (EPA)] | Solid at 1:1 | – | –
20 | O=c1oc2c(O)c(O)cc3c(=O)oc4c(O)c(O)cc1c4c23 [Ellagic Acid] | Solid at 1:1 | – | –

Row | Compound | Physical Form (Ratios Listed as Cation:Anion) [1, 3] | Physical Form (Ratios Listed as Cation:Anion) [1, 4] | other results
21 | O=C(O)/C=C/C(=O)O [Fumaric Acid] | Solid | – | Physical Form (Ratios Listed as Cation:Anion) [1, 5]: Liquid
22 | CC(C)=CCC/C(C)=C/C(=O)O [Geranic Acid] | Liquid at 1:1, 1:2 | Liquid at 1:1, 1:2 | –
23 | O=C(O)CCCC(=O)O [Glutaric Acid] | Liquid at 2:1, 1:1 | – | Physical Form (Ratios Listed as Cation:Anion) [1, 5]: Liquid at 2:1, 1:1
24 | O=C(O)CO [Glycolic Acid] | Liquid at 2:1, 1:1 | – | Physical Form (Ratios Listed as Cation:Anion) [1, 5]: Liquid at 2:1, 1:1
25 | CCCCCC(=O)O [Hexanoic Acid] | Liquid at 1:1, 1:2 | Liquid at 1:1, 1:2 | –
26 | O=C1O[C@H]([C@@H](O)CO)C(O)=C1O [L-Ascorbic Acid] | Solid at 1:1 | – | –
27 | N[C@@H](CCC(=O)N[C@@H](CS)C(=O)NCC(=O)O)C(=O)O [L-Glutathione reduced] | – | – | Physical Form (Ratios Listed as Cation:Anion) [1, 5]: Solid at 2:1
28 | CC(O)C(=O)O (stereo not shown) [Lactic Acid] | Liquid at 1:1, 1:2 | Liquid at 1:1, 1:2 | –
29 | CCCCCCCCCCCC(=O)O [Lauric Acid] | Solid at 1:1, 1:2 | Solid at 1:1, 1:2 | –
30 | CC(=O)CCC(=O)O [Levulinic Acid] | Liquid at 1:1, 1:2 | Liquid at 1:1, 1:2 | –
31 | O=C(O)/C=C\C(=O)O [Maleic Acid] | Liquid at 2:1, 1:1 | – | Physical Form (Ratios Listed as Cation:Anion) [1, 5]: Liquid at 2:1, 1:1
32 | O=C(O)CC(O)C(=O)O (stereo not shown) [Malic Acid] | Liquid at 2:1, 1:1 | – | Physical Form (Ratios Listed as Cation:Anion) [1, 5]: Liquid at 2:1, 1:1
33 | O=C(O)CC(=O)O [Malonic Acid] | Liquid at 1:1 | – | –
34 | O=C(O)C(O)c1ccccc1 (stereo not shown) [Mandelic Acid] | Liquid at 1:1, 1:2 | Liquid at 1:1, 1:2 | –
35 | C/C(=C\C(=O)O)C(=O)O [Mesaconic Acid] | Solid | – | Physical Form (Ratios Listed as Cation:Anion) [1, 5]: Liquid
36 | CCCCCCCCC(=O)O [Nonanoic Acid] | Solid at 1:1, 1:2 | Solid at 1:1, 1:2 | –
37 | CCCCCCCC/C=C\CCCCCCCC(=O)O [Oleic Acid] | Solid at 1:1, 1:2 | Solid at 1:1, 1:2 | –
38 | C=C(C)[C@@H]1CC=C(C(=O)O)CC1 [Perillic Acid] | Solid at 1:1 | – | –
39 | O=P(O)(O)O [Phosphoric Acid] | Solid | Liquid | Physical Form (Ratios Listed as Cation:Anion) [1, 5]: Liquid
40 | O=C(O)CCCCCC(=O)O [Pimelic Acid] | Liquid at 2:1, 1:1 | – | Physical Form (Ratios Listed as Cation:Anion) [1, 5]: Liquid at 2:1, 1:1

Row | Compound | Physical Form (Ratios Listed as Cation:Anion) [1, 3] | Physical Form (Ratios Listed as Cation:Anion) [1, 4] | other results
41 | CCC(=O)O [Propionic Acid] | Liquid at 2:1, 1:1 | – | Physical Form (Ratios Listed as Cation:Anion) [1, 5]: Liquid at 2:1, 1:1
42 | O=C1CC[C@@H](C(=O)O)N1 [Pyroglutamic Acid] | Solid | Liquid | –
43 | CC(=O)C(=O)O [Pyruvic Acid] | Liquid at 1:1, 1:2 | Liquid at 1:1, 1:2 | –
44 | CCCCCC[C@@H](O)C/C=C\CCCCCCCC(=O)O [Ricinoleic Acid] | Liquid at 1:1, 1:2 | Liquid at 1:1, 1:2 | –
45 | C/C=C/C=C/C(=O)O [Sorbic Acid] | Liquid at 1:1, 1:2 | Liquid at 1:1, 1:2 | –
46 | O=C(O)CCC(=O)O [Succinic Acid] | Liquid at 2:1, 1:1, 1:2 | Liquid at 2:1, 1:1, 1:2 | Physical Form (Ratios Listed as Cation:Anion) [1, 5]: Liquid at 2:1, 1:1, 1:2
47 | COc1cc(C(=O)O)cc(OC)c1O [Syringic Acid] | Solid at 1:1 | – | –
48 | CCCCCCC/C=C/C(=O)O [Trans-2-Decenoic Acid] | Solid at 1:1, 1:2 | Solid at 1:1, 1:2 | –
49 | CCC/C=C/C(=O)O [Trans-2-Hexenoic Acid] | Liquid at 1:1, 1:2 | Liquid at 1:1, 1:2 | –
50 | CCCCC/C=C/C(=O)O [Trans-2-Octenoic Acid] | Liquid at 1:1, 1:2 | Liquid at 1:1, 1:2 | –
51 | CCCC/C=C/CC(=O)O [Trans-3-Octenoic Acid] | Liquid at 1:1, 1:2 | Liquid at 1:1, 1:2 | –
52 | C=CCCCCCC(=O)O [Trans-7-Octenoic Acid] | Liquid at 1:1, 1:2 | Liquid at 1:1, 1:2 | –
53 | COc1cc(/C=C/C(=O)O)ccc1O [Trans-Ferulic Acid] | Solid at 1:1 | – | –
54 | CCCCCCCCCCC(=O)O [Undecanoic Acid] | Solid at 1:1 | – | –
55 | COc1cc(C(=O)O)ccc1O [Vanillic Acid] | Solid at 1:1 | – | –
56 | CC(C)=CCCC(C)CC(=O)O (stereo not shown) [citronellic acid alone, citronellic acid, reference compound] | – | – | blood glucose levels, % of starting levels [2]: about 30%
57 | Cc1ccc(S(=O)(=O)O)cc1 [p-Toluenesulfonic Acid] | Solid | Liquid | –
58 | O=C(O)CCC(=O)C(=O)O [α-Ketoglutaric Acid] | – | – | Physical Form (Ratios Listed as Cation:Anion) [1, 5]: Liquid at 2:1
59 | Dihydrobenzoic Acid | Solid at 1:1 | – | –
